For one assay, the system named is E. coli ATCC25922. Put plainly: Antibacterial activity assay (broth dilution MIC). The conditions noted are these: Escherichia coli, 37° C., 24 h, compounds 38, 44-45, 58-61, 63-64 with 0.05% Tween 80. The class given is cell-based. As to the method:
(§1) Antibacterial activity assay. The antibacterial activities of all the compounds were determined according to a broth dilution method specified in Clinical and Laboratory Standards Institute (CLSI) guidelines. Bacterial cells were inoculated on a Mueller-Hinton agar (MHA) plate for overnight culture, and the concentration of the bacterial cells was adjusted to about 1×10^6 colony-forming units (CFU)/mL with phosphate buffered saline (PBS). First, a 1000 μg/mL stock solution (a final concentration of dimethyl sulfoxide (DMSO) was ≤2%) was prepared by dissolving a sample in DMSO/H2O. Then, the stock solution was diluted with Mueller-Hinton Broth (MHB) to an initial concentration of 100 μg/mL, and the sample solution (100 μL) was subjected to two-fold gradient dilution with MHB in a 96-well plate, to obtain 100 μg/mL to 0.78 μg/mL serial dilutions. Then, a bacterial suspension (100 μL) was added to each well of the 96-well plate and mixed with the test sample solution (100 μL). Among them, test systems for compounds 38, 44-45, 58-61 and 63-64 contained 0.05% of Tween 80. Finally, the 96-well plate was incubated at 37° C. for 24 hours. Absorbances at 600 nm at 0 and 24 h were measured. An minimum inhibitory concentration (MIC) value was defined as the lowest concentration where no visible bacterial growth occurred. All experiments were carried out in at least two duplicates, and biological repeatability could be achieved.

The next assay has as its system S. aureus ATCC29213. Put plainly: Antibacterial activity assay (broth dilution MIC). Type of assay: cell-based. The conditions noted are these: Staphylococcus aureus, 37° C., 24 h, compounds 38, 44-45, 58-61, 63-64 with 0.05% Tween 80. As to the method:
as §1
For orientation: In broth dilution the organism is exposed to a series of concentrations in liquid medium.

The next assay deals with MRSA N315. Nature of the assay: Antibacterial activity assay (broth dilution MIC). The class given is cell-based, methicillin-resistant Staphylococcus aureus. Particulars: Staphylococcus aureus, 37° C., 24 h, compounds 38, 44-45, 58-61, 63-64 with 0.05% Tween 80. As to the method:
as §1

A further assay deals with MRSA NCTC10442. Nature of the assay: Antibacterial activity assay (broth dilution MIC). The class given is cell-based, methicillin-resistant Staphylococcus aureus. The conditions noted are these: Staphylococcus aureus, 37° C., 24 h, compounds 38, 44-45, 58-61, 63-64 with 0.05% Tween 80. The method, then: as §1
Another assay concerns Gram-positive bacteria. Put plainly: Antibacterial activity against Gram-positive bacteria (MIC summary). The class given is cell-based. Particulars: 24 h, read-out: minimum inhibitory concentration (MIC) against Gram-positive bacteria. The method, then: as §1
Another assay relates to Gram-negative bacteria. Put plainly: Antibacterial activity against Gram-negative bacteria (MIC summary). The class given is cell-based. Particulars: 24 h; summary of tables 1 and 2. As to the method: as §1

Converted amounts (≈) assume the structure as drawn. Where two headings read alike, the source gives them in different places.

We go through eight compounds from patent US11912650B2, “Bakuchiol derivatives, pharmaceutically acceptable salts thereof, and preparation method and use of the same” (priority 2020, dated 2024).

With `C=C[C@@](C)(/C=C/c1ccc(OCCCCN(C)CCCNC)cc1)CCC=C(C)C` [Compound 24], the MIC against E. coli ATCC25922 was 1.56 µg/mL (≈ 3.78 µM); against S. aureus ATCC29213 it was 1.56 µg/mL (≈ 3.78 µM); in the assay on MRSA N315, 0.78 µg/mL (≈ 1.89 µM); in the assay with MRSA NCTC10442 it was 1.56 µg/mL (≈ 3.78 µM); in the assay on Gram-positive bacteria (summary of tables 1 and 2), 0.39 to 3.12 µg/mL (≈ 0.945 to 7.57 µM); in the assay with Gram-negative bacteria, 1.56 to 3.12 µg/mL (≈ 3.78 to 7.57 µM).

In the case of `C=C[C@@](C)(/C=C/c1ccc(OCCCCN(C)CCCN(C)C)cc1)CCC=C(C)C` [Compound 26], the MIC is 3.12 µg/mL (≈ 7.32 µM) against E. coli ATCC25922; 1.56 µg/mL (≈ 3.66 µM) in the assay with S. aureus ATCC29213; 1.56 µg/mL (≈ 3.66 µM) in the assay on MRSA N315; 3.12 µg/mL (≈ 7.32 µM) against MRSA NCTC10442; 0.39 to 3.12 µg/mL (≈ 0.914 to 7.32 µM) in the assay with Gram-positive bacteria (summary of tables 1 and 2); 1.56 to 3.12 µg/mL (≈ 3.66 to 7.32 µM) in the assay on Gram-negative bacteria.

On to `C=C[C@@](C)(/C=C/c1ccc(OCCCCN(C)CCCN(C)CCCNC)cc1)CCC=C(C)C` [Compound 27], for which the MIC is 1.56 µg/mL (≈ 3.22 µM) in the assay on E. coli ATCC25922; 1.56 µg/mL (≈ 3.22 µM) against S. aureus ATCC29213; 0.78 µg/mL (≈ 1.61 µM) in the assay on MRSA N315; 1.56 µg/mL (≈ 3.22 µM) against MRSA NCTC10442; 0.39 to 3.12 µg/mL (≈ 0.806 to 6.46 µM) with Gram-positive bacteria (summary of tables 1 and 2); 1.56 to 3.12 µg/mL (≈ 3.22 to 6.46 µM) with Gram-negative bacteria.

On to `C=C[C@](C)(/C=C/c1ccc(OCCCCNCCN(CCN)CCN)cc1)CCC=C(C)C` [Compound 29], for which the MIC is 3.12 µg/mL (≈ 6.84 µM) against E. coli ATCC25922; 0.78 µg/mL (≈ 1.71 µM) with S. aureus ATCC29213; 0.78 µg/mL (≈ 1.71 µM) against MRSA N315; 0.78 µg/mL (≈ 1.71 µM) against MRSA NCTC10442; 0.39 to 3.12 µg/mL (≈ 0.854 to 6.84 µM) in the assay on Gram-positive bacteria (summary of tables 1 and 2); 1.56 to 3.12 µg/mL (≈ 3.42 to 6.84 µM) in the assay on Gram-negative bacteria.

In the case of `C=C[C@@](C)(/C=C/c1ccc(OCCCCN2CCCNCCNCCCNCC2)cc1)CCC=C(C)C` [Compound 30], the MIC is 3.12 µg/mL (≈ 6.12 µM) against E. coli ATCC25922; 0.78 µg/mL (≈ 1.53 µM) against S. aureus ATCC29213; 0.78 µg/mL (≈ 1.53 µM) against MRSA N315; 0.78 µg/mL (≈ 1.53 µM) against MRSA NCTC10442; 0.39 to 3.12 µg/mL (≈ 0.763 to 6.12 µM) in the assay on Gram-positive bacteria (summary of tables 1 and 2); 1.56 to 3.12 µg/mL (≈ 3.05 to 6.12 µM) in the assay on Gram-negative bacteria.

Consider `C=C[C@](C)(/C=C/c1ccc(OCC(=O)N[C@@H](CCCNC(=N)N)C(=O)N[C@@H](CCCNC(=N)N)C(=O)OC)cc1)CCC=C(C)C` [Compound 44], for which the MIC against E. coli ATCC25922 is 3.12 µg/mL (≈ 4.88 µM); in the assay with S. aureus ATCC29213, 0.78 µg/mL (≈ 1.22 µM); in the assay on MRSA N315, 0.78 µg/mL (≈ 1.22 µM); against MRSA NCTC10442 it was 1.56 µg/mL (≈ 2.43 µM); in the assay with Gram-positive bacteria it was 0.39 to 3.12 µg/mL (≈ 0.609 to 4.88 µM); against Gram-negative bacteria it was 1.56 to 3.12 µg/mL (≈ 2.43 to 4.88 µM).

Take `C=C[C@](C)(/C=C/c1ccc(OCC(=O)N[C@@H](CCCNC(=N)N)C(=O)N[C@@H](CCCNC(=N)N)C(=O)N2CCN(c3ccc(N4C[C@H](CNC(C)=O)OC4=O)cc3F)CC2)cc1)CCC=C(C)C` [Compound 59]: the MIC was 1.56 µg/mL (≈ 1.65 µM) with E. coli ATCC25922; 0.78 µg/mL (≈ 0.825 µM) against S. aureus ATCC29213; 0.78 µg/mL (≈ 0.825 µM) against MRSA N315; 0.78 µg/mL (≈ 0.825 µM) with MRSA NCTC10442; 0.39 to 3.12 µg/mL (≈ 0.413 to 3.31 µM) with Gram-positive bacteria (summary of tables 1 and 2); 1.56 to 3.12 µg/mL (≈ 1.65 to 3.31 µM) with Gram-negative bacteria.

For the compound `C=C[C@](C)(/C=C/c1ccc(OCC(=O)N[C@@H](CCCNC(=N)N)C(=O)N[C@@H](CCCNC(=N)N)C(=O)N[C@@H](CCCNC(=N)N)C(=O)N2CCN(c3ccc(N4C[C@H](CNC(C)=O)OC4=O)cc3F)CC2)cc1)CCC=C(C)C` [Compound 63], the MIC is 3.12 µg/mL (≈ 2.84 µM) in the assay on E. coli ATCC25922; 0.78 µg/mL (≈ 0.708 µM) in the assay on S. aureus ATCC29213; 0.78 µg/mL (≈ 0.708 µM) in the assay with MRSA N315; 0.78 µg/mL (≈ 0.708 µM) in the assay on MRSA NCTC10442; 0.39 to 3.12 µg/mL (≈ 0.354 to 2.84 µM) with Gram-positive bacteria (summary of tables 1 and 2); 1.56 to 3.12 µg/mL (≈ 1.42 to 2.84 µM) against Gram-negative bacteria.
